Tests used:
[1] = biological target: T1, Beta-secretase 1 (Homo sapiens, UniProt P56817); test: Inhibition of human recombinant Arg235 region of BACE1 at 2 uM by FRET assay
[2] = biological target: T1, Beta-secretase 1; test: Inhibition of human recombinant Arg235 region of BACE1 at 0.2 uM by FRET assay
[3] = biological target: T1, Beta-secretase 1; test: Inhibition of human recombinant Arg235 region of BACE1 by FRET assay

T1 sequence (P56817 whole entry): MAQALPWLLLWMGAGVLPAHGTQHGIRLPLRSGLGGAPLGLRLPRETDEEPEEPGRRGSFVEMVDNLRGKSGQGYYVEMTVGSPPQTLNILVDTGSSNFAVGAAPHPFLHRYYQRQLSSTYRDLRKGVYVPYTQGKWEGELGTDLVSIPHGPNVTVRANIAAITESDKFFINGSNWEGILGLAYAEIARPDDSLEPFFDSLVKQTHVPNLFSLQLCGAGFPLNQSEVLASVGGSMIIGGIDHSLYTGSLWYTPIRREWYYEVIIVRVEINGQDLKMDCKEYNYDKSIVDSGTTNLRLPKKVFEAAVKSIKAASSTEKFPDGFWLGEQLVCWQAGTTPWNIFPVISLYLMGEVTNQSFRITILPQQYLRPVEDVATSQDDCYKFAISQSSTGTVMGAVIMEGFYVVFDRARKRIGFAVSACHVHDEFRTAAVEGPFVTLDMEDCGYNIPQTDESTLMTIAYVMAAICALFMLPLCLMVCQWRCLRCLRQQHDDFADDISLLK

inhibition [1] | inhibition [2] | IC50 [3] | SMILES
99% | 88% | – | O=C(N[C@@H](Cc1ccccc1)[C@H](O)C(=O)Nc1cccc(-c2nn[nH]n2)c1)c1cc(Br)cc(C(=O)N2COC[C@@H]2c2ccccc2)n1
89% | – | – | O=C(N[C@@H](Cc1ccccc1)[C@H](O)C(=O)Nc1cccc(-c2nn[nH]n2)c1)c1cccc(C(=O)N2COC[C@@H]2c2ccccc2)n1
99% | 86% | 24 nM | O=C(N[C@@H](Cc1ccccc1)[C@H](O)C(=O)Nc1cccc(-c2nn[nH]n2)c1)c1cc(I)cc(C(=O)N2COC[C@@H]2c2ccccc2)n1
99% | 92% | – | O=C(N[C@@H](Cc1ccccc1)[C@H](O)C(=O)Nc1cccc(-c2nn[nH]n2)c1)c1cc(I)cc(C(=O)N2COC[C@@H]2c2ccc(F)cc2)n1
– | – | 22 nM | O=C(N[C@@H](Cc1ccccc1)[C@H](O)C(=O)Nc1cccc(-c2nnn[nH]2)c1)c1cc(Cl)cc(C(=O)N2COC[C@@H]2c2ccccc2)n1
98% | 87% | – | O=C(N[C@@H](Cc1ccccc1)[C@H](O)C(=O)Nc1cccc(-c2nn[nH]n2)c1)c1cc(Cl)cc(C(=O)N2COC[C@@H]2c2ccccc2)n1

The remaining lines, values behind:

SMILES | inhibition [1] | inhibition [2] | IC50 [3]
O=C(N[C@@H](Cc1ccccc1)[C@H](O)C(=O)Nc1cccc(-c2nnn[nH]2)c1)c1cc(Br)cc(C(=O)N2COC[C@@H]2c2ccccc2)n1 | – | – | 15 nM
O=C(N[C@@H](Cc1ccccc1)[C@H](O)C(=O)Nc1cccc(-c2nn[nH]n2)c1)c1cc(Br)cc(C(=O)N2COC[C@@H]2c2ccc(F)cc2)n1 | 99% | 93% | –
O=C(N[C@@H](Cc1ccccc1)[C@H](O)C(=O)Nc1cccc(-c2nn[nH]n2)c1)c1cc(Cl)cc(C(=O)N2COC[C@@H]2c2ccc(F)cc2)n1 | 99% | 91% | 13 nM
O=C(N[C@@H](Cc1ccccc1)[C@H](O)C(=O)Nc1cccc(-c2nnn[nH]2)c1)c1cc(I)cc(C(=O)N2COC[C@@H]2c2ccc(F)cc2)n1 | – | – | 10 nM
O=C(N[C@@H](Cc1ccccc1)[C@H](O)C(=O)Nc1cccc(-c2nnn[nH]2)c1)c1cc(Br)cc(C(=O)N2COC[C@@H]2c2ccc(F)cc2)n1 | – | – | 9 nM

Source: ChEMBL document CHEMBL1138451, “Significance of interactions of BACE1-Arg235 with its ligands and design of BACE1 inhibitors with P2 pyridine scaffold” (Bioorg Med Chem Lett, 2009)
